Data from patent US6818663B2, “Diaminothiazoles” (Hoffmann-La Roches, priority 2002, dated 2004).
pIC50: −log10 of the molar value.

Key:
human cyclin B-CDK1 = human cyclin B-CDK1 (Homo sapiens, UniProt P06493); assay: FlashPlate kinase assay, cyclin B-CDK1, Rb substrate; format: biochemical; conditions: recombinant cyclin B-CDK1, Rb phosphorylation, 1 μM ATP
Protocol: (§1) To determine inhibition of Cdk4, Cdk2 and Cdk1 activity, kinase assays were conducted using FlashPlate™ assays (NEN™-Life Science Products). FlashPlate assays were performed using recombinant human cyclin B-CDK1, human cyclin E-CDK2 or human cyclin D1-CDK4 complexes. GST-cyclinE (GST-cycE), CDK2, GST-cyclinB (GST-cycB), CDK1, GST-CDK4 and cyclin D1 (cycD1) cDNA clones in baculovirus vectors were provided by Dr. W. Harper at the Baylor College of Medicine, Houston, Tex. Proteins were co-expressed in High Five™ insect cells and the complex was purified on glutathione Sepharose resin (Pharmacia, Piscataway, N.J.) as previously described (Harper, J. W. et al. Cell 1993, 75, 805-816). A 6×-Histidine tagged truncated form of retinoblastoma (Rb) protein (amino acid 386-928) was used as the substrate for the cycD1-CDK4, cycB-CDK1 and the cycE-CDK2 assays (the expression plasmid was provided by Dr. Veronica Sullivan, Department of Molecular Virology, Roche Research Centre, Welwyn Garden City, United Kingdom). The Rb protein is a natural substrate for phosphorylation by CDK4, CDK2 and CDK1 (see Herwig and Strauss Eur. J. Biochem. Vol. 246 (1997) pp. 581-601 and the references cited therein).
(§2) The expression of the 62 Kd protein was under the control of an IPTG inducible promoter in an M15 E. coli strain. Cells were lysed by sonication and purification was carried out by binding lysates at pH 8.0 to a Ni-chelated agarose column pretreated with 1 mM imidazole. The resin was then washed several times with incrementally decreasing pH buffers to pH 6.0, and eluted with 500 mM imidazole. Eluted protein was dialysed against 20 mM HEPES pH 7.5, 30% glycerol, 200 mM NaCl, and 1 mM DTT. Purified Rb fusion protein stocks were quantitated for protein concentration, aliquoted, and stored at −70° C.
(§3) For all three kinase assays reported herein, 96-well FlashPlates were coated with Rb protein at 10 μg/ml, using 100 μl per well. Plates were incubated at 4° C. overnight or at room temperature for 3 hours on a shaker. To control for nonspecific phosphorylation, one row of wells was coated with 100 μl/well coating buffer (20 mM HEPES, 0.2 M NaCl). Plates were then washed twice with wash buffer (0.01% Tween 20 in phosphate-buffered saline). Compounds to be tested (“test compounds”) were added to the wells at 5×final concentration. Reactions were initiated by immediate addition of 40 μl reaction mix (25 mM HEPES, 20 mM MgCl2, 0.002% Tween 20, 2 mM DTT, 1 μM ATP, 4 nM ^33P-ATP) and a sufficient amount of enzyme to give counts that were at least 10-fold above background. Plates were incubated at room temperature on a shaker for 30 minutes. Plates were washed four times with the wash buffer, sealed, and counted on the TopCount scintillation counter (Packard Instrument Co., Downers Grove, Ill.]. The percent inhibition of Rb phosphorylation, which is a measure of the inhibition of CDK activity, was determined according to the following formula: [formula]
(§4) where “test compound” refers to the average counts per minute of the test duplicates, “nonspecific” refers to the average counts per minute when no CyclinD/Cdk4, etc., was added, and “total” refers to the average counts per minute when no compound was added. The IC50 value is the concentration of test compound that reduces by 50% the protein-kinase induced incorporation of the radiolabel under the test conditions described.

human cyclin E-CDK2 = human cyclin E-CDK2 (Homo sapiens, UniProt P24941); assay: FlashPlate kinase assay, cyclin E-CDK2, Rb substrate; format: biochemical; conditions: recombinant cyclin E-CDK2, Rb phosphorylation, 1 μM ATP
Protocol: as §1, §2, §3, §4

human cyclin D1-CDK4 = human cyclin D1-CDK4 (Homo sapiens, UniProt P11802); assay: FlashPlate kinase assay, cyclin D1-CDK4, Rb substrate; format: biochemical; conditions: recombinant cyclin D1-CDK4, Rb phosphorylation, 1 μM ATP
human cyclin D1-CDK4, sequence (P11802 whole entry): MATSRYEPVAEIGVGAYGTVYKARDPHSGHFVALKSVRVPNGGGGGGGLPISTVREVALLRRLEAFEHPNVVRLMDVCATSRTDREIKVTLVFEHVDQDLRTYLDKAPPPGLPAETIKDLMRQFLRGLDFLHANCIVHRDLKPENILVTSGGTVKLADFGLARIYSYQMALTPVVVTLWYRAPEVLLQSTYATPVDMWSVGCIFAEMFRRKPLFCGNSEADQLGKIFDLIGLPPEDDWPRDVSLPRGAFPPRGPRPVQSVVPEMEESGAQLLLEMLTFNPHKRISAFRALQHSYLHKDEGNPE
human cyclin D1-CDK4, sequence (P24385 whole entry partner): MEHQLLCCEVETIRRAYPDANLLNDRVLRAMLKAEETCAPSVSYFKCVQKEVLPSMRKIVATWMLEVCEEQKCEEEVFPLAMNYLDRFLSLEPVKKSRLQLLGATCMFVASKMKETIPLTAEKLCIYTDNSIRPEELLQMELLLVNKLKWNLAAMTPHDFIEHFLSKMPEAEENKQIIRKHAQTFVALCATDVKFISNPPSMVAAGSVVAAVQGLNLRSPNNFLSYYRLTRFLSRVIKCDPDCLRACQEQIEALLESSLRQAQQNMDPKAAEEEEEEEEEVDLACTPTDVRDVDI
Protocol: as §1, §2, §3, §4

[1] = tested on: HCT116, a colorectal carcinoma cell line; assay: Tetrazolium dye proliferation assay (MTT assay); format: cell-based; conditions: inhibition of cell proliferation
Protocol: Proliferation was evaluated by the tetrazolium dye assay according to the procedure of Denizot and Lang (Denizot, F. and Lang, R. J Immunol Methods 1986, 89, 271-277). The cell line used was HCT116, a colorectal carcinoma cell line obtained from the American Type Cell Culture Collection (ATCC; Rockville, Md.). The cells were grown in McCoy's 5A medium supplemented with 10% FCS and L-glutamine.
Cells were plated at the appropriate seeding density to give logarithmic growth over the course of the assay in a 96-well tissue culture plate. Plates were incubated overnight at 37° C. in a humidified incubator with 5% CO2. The next day, test compounds were serially diluted to four times the final concentration in the appropriate medium containing 1.2% DMSO. One-fourth final volume of each dilution was added in duplicate to the plates containing cells. The same volume of 1.2% DMSO in medium was added to a row of “control wells” such that the final concentration of DMSO in each well was 0.3%. Wells to which no cells were added served as the “blank.” Wells to which no inhibitor was added served as “no inhibitor control.” The plates were) returned to the incubator, and at set time points (determined by their growth curves) plates were analyzed as described below.
3-(4,5-dimethylthiazole-2-yl)-2,5-diphenyl-2H-tetrazolium bromide (thiazolyl blue; MTT; Sigma) was added to each well to yield a final concentration of 1 mg/ml. Plates were returned to the incubator for 2.5-3 hours at 37° C. The MTT-containing medium was removed and the resulting formazan metabolite was solubilized in 100% ethanol with shaking for 15 minutes at room temperature. Absorbance readings were taken in a microtiter plate reader (Dynatech and Molecular Devices plate readers were used interchangeably) at a wavelength of 570 nm with a 650 nm reference. Percent inhibition (% INH) is calculated by subtracting the absorbance of the blank well from all wells, then subtracting the ratio of the average absorbance of each test duplicate (SAVE) by the average of the controls (CAVE) from 1.00. The final number is then multiplied by 100 (% INH=(1.00−SAVE/CAVE)×100). The concentration at which 50% inhibition of cell proliferation is obtained (the IC50) is determined from the linear regression of a plot of the logarithm of the concentration versus percent inhibition.

[2] = Homo sapiens, HCT-116, HCT116 cells

human cyclin B-CDK1, sequence (P06493 whole entry): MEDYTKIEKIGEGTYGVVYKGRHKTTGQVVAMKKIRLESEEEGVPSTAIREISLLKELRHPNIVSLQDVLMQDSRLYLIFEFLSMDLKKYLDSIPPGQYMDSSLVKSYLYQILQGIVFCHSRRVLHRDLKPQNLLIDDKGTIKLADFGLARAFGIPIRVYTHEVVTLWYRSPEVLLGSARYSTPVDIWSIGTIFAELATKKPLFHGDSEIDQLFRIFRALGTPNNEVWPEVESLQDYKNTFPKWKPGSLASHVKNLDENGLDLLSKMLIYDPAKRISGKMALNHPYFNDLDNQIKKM
human cyclin B-CDK1, sequence (P14635 whole entry partner): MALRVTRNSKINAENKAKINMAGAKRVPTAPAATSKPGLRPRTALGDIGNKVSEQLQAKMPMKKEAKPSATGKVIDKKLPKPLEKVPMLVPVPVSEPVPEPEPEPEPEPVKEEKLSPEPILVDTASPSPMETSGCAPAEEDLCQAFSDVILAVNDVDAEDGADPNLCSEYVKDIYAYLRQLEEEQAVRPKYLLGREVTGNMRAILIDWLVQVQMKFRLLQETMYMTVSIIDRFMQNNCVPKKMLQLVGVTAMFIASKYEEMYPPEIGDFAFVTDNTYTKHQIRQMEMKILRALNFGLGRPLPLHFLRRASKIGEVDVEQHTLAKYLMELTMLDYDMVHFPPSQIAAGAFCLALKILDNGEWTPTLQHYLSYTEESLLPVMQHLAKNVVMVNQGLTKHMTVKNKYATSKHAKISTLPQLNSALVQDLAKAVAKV

Structure (SMILES) | pIC50 (human cyclin B-CDK1) | pIC50 (human cyclin E-CDK2) | pIC50 (human cyclin D1-CDK4) | pIC50 [1, 2] | pIC50 ([1]; HCT116 cells)
CCc1ccc(C(=O)c2sc(Nc3ccc(OCCN4CCCC4)cc3)nc2N)cc1F [Example 6, [4-Amino-2-[4-(2-pyrrolidin-1-yl-ethoxy)-phenylamino]-thiazol-5-yl]-(4-ethyl-3-fluoro-phenyl)-methanone; Compound With Trifluoroacetic Acid] | 5.95 | 5.50 | 7.37 | 5.43 | 
CN(C)CCOc1ccc(Nc2nc(N)c(C(=O)c3cccc(F)c3)s2)cc1 [Example 37, [4-Amino-2-[4-(2-dimethylamino-ethoxy)-phenylamino]-thiazol-5-yl]-(3-fluoro-phenyl)-methanone] | 6.90 | 6.05 | 7.49 | 6.28 | 
CC(COc1ccc(Nc2nc(N)c(C(=O)c3cccc(F)c3)s2)cc1)N(C)C (stereo not drawn) [Example 38, [4-Amino-2-[4-(2-dimethylamino-propoxy)-phenylamino]-thiazol-5-yl]-(3-fluoro-phenyl)-methanone] | 6.24 | 5.86 | 7.01 | 6.36 | 
CCCc1cc(C(=O)c2sc(Nc3ccc(OC4CCCNC4)cc3)nc2N)ccc1O (stereo not drawn) [Example 99, [4-Amino-2-[4-(piperidin-3-yloxy)-phenylamino]-thiazol-5-yl]-(4-hydroxy-3-propyl-phenyl)-methanone] | 6.76 | 6.80 | 7.42 |  | 
CCCc1cc(C(=O)c2sc(Nc3ccc(OCCN(C)C)cc3)nc2N)ccc1O [Example 106, [4-Amino-2-[4-(2-dimethylamino-ethoxy)-phenylamino]-thiazol-5-yl-](4-hydroxy-3-propyl-phenyl)-methanone; Compound With Acetic Acid] | 6.46 | 6.57 | 7.77 |  | 
CCNCCOc1ccc(Nc2nc(N)c(C(=O)c3ccc4c(c3)OCCO4)s2)cc1 [Example 134, [4-Amino-2-[4-(2-ethylamino-ethoxy)-phenylamino]-thiazol-5-yl]-(2,3-dihydro-benzo[1,4]dioxin-6-yl)-methanone] | 5.71 |  | 7.36 | 5.14 | 
CC(C)NCCOc1ccc(Nc2nc(N)c(C(=O)c3ccc4c(c3)OCCO4)s2)cc1 [Example 136, [4-Amino-2-[4-(2-isopropylamino-ethoxy)-phenylamino]thiazol-5-yl]-(2,3-dihydro-benzo[1,4]dioxin-6-yl)-methanone] | 5.76 |  | 7.35 | 5.29 | 
COc1ccc(C(=O)c2sc(Nc3ccc(OCCCN)cc3)nc2N)cc1F [Example 147, [4-Amino-2-[4-(3-amino-propoxy)-phenylamino]-thiazol-5-yl]-(3-fluoro-4-methoxy-phenyl)-methanone] | 6.24 | 5.76 | 7.01 |  | 
CCNCCCOc1ccc(Nc2nc(N)c(C(=O)c3ccc(OC)c(F)c3)s2)cc1 [Example 148, [4-Amino-2-[4-(3-ethylamino-propoxy)-phenylamino]-thiazol-5-yl]-(3-fluoro-4-methoxy-phenyl)methanone] | 6.28 | 5.72 | 7.17 |  | 

Results, then the compound that gave them:

pIC50 (human cyclin B-CDK1) | pIC50 (human cyclin E-CDK2) | pIC50 (human cyclin D1-CDK4) | pIC50 [1, 2] | pIC50 ([1]; HCT116 cells) | Structure (SMILES)
6.47 | 6.10 | 7.57 |  | 6.32 | Nc1nc(Nc2ccc(OCCN3CCCC3)cc2)sc1C(=O)c1cccc(F)c1 [Example 36, [4-Amino-2-[4-(2-pyrrolidin-1-yl-ethoxy)-phenylamino]-thiazol-5-yl]-(3-fluoro-phenyl)-methanone]
6.05 |  | 7.37 | 5.43 |  | CN(C)CCOc1ccc(Nc2nc(N)c(C(=O)c3ccc4c(c3)OCCO4)s2)cc1 [Example 58, [4-Amino-2-[4-(2-dimethylamino-ethoxy)-phenylamino]-thiazol-5-yl]-(2,3-dihydro-benzo[1,4]dioxin-6-yl)-methanone]
5.41 |  | 7.20 | 5.43 |  | CCc1cc(C(=O)c2sc(Nc3ccc(OCCN4CCCC4)cc3)nc2N)ccc1F [Example 76, [4-Amino-2-[4-(2-pyrrolidin-1-yl-ethoxy)-phenylamino]-thiazol-5-yl]-(3-ethyl-4-fluoro-phenyl)-methanone]
5.11 |  | 7.10 | 5.36 |  | CCc1cc(C(=O)c2sc(Nc3ccc(OC[C@@H](C)N(C)C)cc3)nc2N)ccc1F [Example 77, (R)-[4-Amino-2-[4-(2-dimethylamino-propoxy)-phenylamino]-thiazol-5-yl]-(3-ethyl-4-fluoro-phenyl)-methanone]
 | 5.19 | 7.26 | 5.37 |  | CCc1cc(C(=O)c2sc(Nc3ccc(OC4CCCN(CC)C4)cc3)nc2N)ccc1F (stereo not drawn) [Example 81, [4-Amino-2-[4-(1-ethyl-piperidin-3-yloxy)-phenylamino]-thiazol-5-yl]-(3-ethyl-4-fluoro-phenyl)-methanone]
5.81 | 5.52 | 7.07 |  |  | Cc1cccc(C(=O)c2sc(Nc3ccc(OC[C@@H]4CCCN4C)cc3)nc2N)c1 [Example 111, (S)-[4-Amino-2-[4-(1-methyl-pyrrolidin-2-ylmethoxy)-phenylamino]-thiazol-5-yl]-m-tolyl-methanone]
 |  | 7.20 | 5.33 |  | CC1COc2ccc(C(=O)c3sc(Nc4ccc(OCCN5CCCC5)cc4)nc3N)cc21 (stereo not drawn) [Example 140, [4-Amino-2-[4-(2-pyrrolidin-1-yl-ethoxy)-phenylamino]-thiazol-5-yl]-(3-methyl-2,3-dihydro-benzofuran-5-yl)-methanone]
5.63 | 5.52 | 7.04 |  |  | CCNCCOc1ccc(Nc2nc(N)c(C(=O)c3ccc4c(c3)CCO4)s2)cc1 [Example 143, [4-Amino-2-[4-(2-ethylamino-ethoxy)-phenylamino]-thiazol-5-yl]-(2,3-dihydro-benzofuran-5-yl)-methanone]
